In patent EP0666841B1, “SUCCINOYLAMINO HYDROXYETHYLAMINO SULFAMIC ACID DERIVATIVES USEFUL AS RETROVIRAL PROTEASE INHIBITORS” (G.D. SEARLE & CO., priority 1992, dated 1994):
One block for each compound: values may come before it.

Molecular target: T1, HIV protease (Human immunodeficiency virus type 1 group M subtype B, UniProt P04585)
T1 construct: HIV protease is diluted in the assay buffer to a final enzyme concentration of 12.3 nanomolar, based on a molecular weight of 10,780
Assay: HIV protease enzyme assay (fluorescence, peptide substrate)
Assay type: biochemical
Details: read-out: IC50 or % inhibition
Description: The compounds of the present invention are effective HIV protease inhibitors. Utilizing an enzyme assay as described below, the compounds set forth in the examples herein disclosed inhibited the HIV enzyme. The preferred compounds of the present invention and their calculated IC50 (inhibiting concentration 50%, i.e., the concentration at which the inhibitor compound reduces enzyme activity by 50%) values are shown in Table 17. The enzyme method is described below. The substrate is 2-Ile-Nle-Phe(p-NO2)-Gln-ArgNH2. The positive control is MVT-101 (Miller, M. et al, Science, 246, 1149 (1989)] The assay conditions are as follows: Assay buffer: 20 mM sodium phosphate, pH 6.4 20% glycerol 1 mM EDTA 1 mM DTT 0.1% CHAPS
The above described substrate is dissolved in DMSO, then diluted 10 fold in assay buffer. Final substrate concentration in the assay is 80 µM.
HIV protease is diluted in the assay buffer to a final enzyme concentration of 12.3 nanomolar, based on a molecular weight of 10,780.
The final concentration of DMSO is 14% and the final concentration of glycerol is 18%. The test compound is dissolved in DMSO and diluted in DMSO to 10x the test concentration; 10µl of the enzyme preparation is added, the materials mixed and then the mixture is incubated at ambient temperature for 15 minutes. The enzyme reaction is initiated by the addition of 40µl of substrate. The increase in fluorescence is monitored at 4 time points (0, 8, 16 and 24 minutes) at ambient temperature. Each assay is carried out in duplicate wells.

Structure (SMILES): CC(C)CN(C[C@@H](O)[C@H](Cc1ccccc1)NC(=O)OCc1ccccc1)S(=O)(=O)NC(C)C [C]
- inhibition at 1 µM: 59%

Structure (SMILES): CC(C)CN(C[C@@H](O)[C@H](Cc1ccccc1)NC(=O)OCc1ccccc1)S(=O)(=O)N1CCN(C)CC1 [D]
- inhibition at 0.1 µM: 29%

Structure (SMILES): CC(C)CN(C[C@@H](O)[C@H](Cc1ccccc1)NC(=O)OCc1ccccc1)S(=O)(=O)Nc1ccccc1 [E]
- IC50 (IC50 values printed in nM): 70 nM

Structure (SMILES): CC(C)CN(C[C@@H](O)[C@H](Cc1ccccc1)NC(=O)OCc1ccccc1)S(=O)(=O)N1CCCC1 [F]
- inhibition at 0.1 µM: 22%

Structure (SMILES): CC(C)(C)NS(=O)(=O)N(Cc1ccccc1)C[C@@H](O)[C@H](Cc1ccccc1)NC(=O)OCc1ccccc1 [H]
- inhibition at 10 µM: 48%

Structure (SMILES): CC(C)(C)NS(=O)(=O)N(C[C@@H](O)[C@H](Cc1ccccc1)NC(=O)OCc1ccccc1)C1CCCCC1 [K]
- inhibition at 1 µM: 60%

Second part, the compound after the results:

- inhibition at 0.1 µM: 29%
Structure (SMILES): CNS(=O)(=O)N(CC(C)C)C[C@@H](O)[C@H](Cc1ccccc1)NC(=O)OCc1ccccc1 [A]

- inhibition at 10 µM: 55%
Structure (SMILES): CN(C)S(=O)(=O)N(Cc1ccc(F)cc1)C[C@@H](O)[C@H](Cc1ccccc1)NC(=O)OCc1ccccc1 [B]
